Laboratory results from patent US6458840B2, “Use of valproic acid analog for the treatment and prevention of migraine and affective illness” (American Biogenetic Sciences, Inc., priority 1998, dated 2002).

Experiments:
[1] = system: amygdala-kindled seizures; details: rats; cited from earlier work
[2] = Rotarod test (neurological deficit) in kindled rats; type: in vivo, rat; details: 100 mg/kg; 13′; all 8 animals +
Experimental: (§1) Tests included open field observations, rotarod test and body temperature. Tests were always performed in the same manner in control and drug experiments at two different times, just before application of drug or vehicle and 13 minutes after application.
The rotarod test was carried out with a rod of 6 cm diameter and rotation speed of 8 r.p.m. Neurological deficit was indicated by inability of the animals to maintain their equilibrium for at least 1 min on the rotating rod. Rats had to be trained prior to drug experiments to maintain their balance on the rod. After drug or vehicle treatment, rats which were not able to maintain their equilibrium on the rod for 1 minute were put again on the rod twice.

Rectal body temperature = type: in vivo, rat; details: 100 mg/kg; 13′ post appl.; mean of 8 rats; ante appl. 38.71
Experimental: Female Wistar rats (Harlan-Winkelmann, Borchen, Germany) were obtained at an age of 11-12 weeks (body weight 180-200 g). Female rats were employed because they are known to eliminate drugs less rapidly than do males, which was thought to be an advantage for drug potency studies. Rats were kept separately in plastic cages at controlled temperature (23° C.) and humidity (about 50 %) with a 12-h light cycle beginning at 7 a.m. They received standard diet (Altromin; Lage, F.R.G.), tap water and libitum. All drug injections were done in the afternoon at an ambient temperature of 23-25° C. The regular protocol started by taking the rats out of their individual cage, weighing them and joining them together on a table with six open plastic cages for better behavioral observations. Therefore animals were able to move from one cage to another and either to have social contact or to avoid it. After a short adaptation time of approximately 15 minutes, rectal body temperatures were recorded followed by drug or vehicle application.
as §1
In addition to these quantitative estimations of neurological deficit, behavioral alterations observed after administration of 2-propyl-4-hexynoic acid and valproate noted in the cage and by placing the animals in an open field of 90-100 cm diameter. Muscle tone was estimated by palpation of the abdomen. The extent of deficits in behavior after administration of the compounds was determined by a rating system (Loscher et al. 1987). In short, animals were taken out of the cage, placed in an open field, observed for about 1 minute and rated separately for ataxia, abducted hindlimbs, reduced righting, flat body posture, circling, Straub tail, piloerection, hypolocomotion and hyperlocomotion (abdominal muscle tone was evaluated by palpation at the end of the period of observation). All other parameters except ataxia were scored from 0 to 3: 0-absent; 1-equivocal; 2-present; 3- intense. For ataxia (06): 1 -slight ataxia in hind-legs (tottering of the hind quarters); 2-more pronounced ataxia with dragging of hind legs; 3-further increase of ataxia and more pronounced dragging of hind legs; 4-marked ataxia, animals lose balance during forward locomotion; 5- very marked ataxia with frequent loss of balance during forward locomotion; 6-permanent loss of righting reflexes, but animal still attempts to move forward. Rectal body temperature was measured by an electronic thermometer. Body weight of the animals was recorded once daily before drug injection. Significance of differences in behavior between pre-drug and post-drug data determined in the same group of animals was calculated by the Wilcoxon signed rank test for paired replicates and for body temperature by Student's paired t-test (SigmaStat for Windows, version 1.0). Differences in body temperature were always compared only within the experimental day with the pre-drug time as control to one post-drug time.

[3] = system: amygdala-kindled seizures; test: Amygdala-kindling in fully kindled rats (anti-seizure effects); type: in vivo, rat; details: 100 mg/kg
Experimental: For implantation of stimulation and recording electrodes, rats were anesthetized with chloral hydrate (360 mg/kg i.p.) and received stereotaxic implantation (according to the surgery methods described in the atlas of Paxinos and Watson [1986]) of one bipolar electrode in the right basolateral amygdala. Coordinates for electrode implantation were AP-2.2 mm, L-4.8 mm, V-8.5 mm. All coordinates were measured from bregma. Skull screws served as the indifferent reference electrode. The electrode assembly was attached to the skull by dental acrylic cement. After a postoperative period of 2 weeks, constant current stimulations (500 μA, 1 ms, monophasic square-wave pulses, 50/s for 1 s) were delivered to the amygdala at intervals of 1/day until ten stage 5 seizures were elicited. The electrical susceptibility of the stimulated region (threshold for induction of afterdischarges) was recorded on the first day of the experiment (initial afterdischarge threshold) as well as after kindling acquisition (with an interval of at least 4 days after the tenth stage 5 seizure) using an ascending staircase procedure. The initial current intensity was 1 OμA, and the current intensity was increased in steps of about 20% of the previous current at intervals of 1 min until an afterdischarge of at least 3 s duration was elicited. […] In addition to afterdischarge threshold, the following parameters of kindled seizures were measured in fully-kindled rats after stimulation with the afterdischarge threshold current: seizure severity was classified according to Racine (1972): 1 -immobility, eye closure, twitching of vibrissae, sniffing, facial clonus; 2-head nodding associated with more severe facial clonus; 3-clonus of one forelimb; 4-rearing, often accompanied by bilateral forelimb clonus; 5-rearing with loss of balance and falling accompanied by generalized clonic seizures. Seizure duration 1 (SD 1) was the duration of limbic (stage 1-2) and/or motor seizures (stage 3-5). Seizure duration 2 (SD 2) included the time of limbic and/or motor seizures plus the adjacent time of immobility. Afterdischarge duration 1 (ADD 1) was the time of spikes in the EEG recorded from the site of stimulation with a frequency of at least 1 /s. Afterdischarge duration 2 (ADD 2) was the total time of spikes occurring in the EEG including those, which followed the ADD 1 with lower frequency and amplitude.
The anti-seizure effects of 2-propyl-4-hexynoic acid and valproate in fully kindled rats were determined in a group of 8-9 rats (no. 784, 785, 787, 788, 789, 790 [had to be taken out of the trial, because of loss of electrodes], 791, 792, 793) with reproducible stage 5 seizures.
Drugs were injected 15 min prior to stimulation intraperitoneally. Control experiments were always performed 2-3 days before each drug experiment. For control determinations, rats received i.p. injections of vehicle (saline) with the pretreatment time of the respective drug experiment. For all drug experiments, at least 4 days were interposed between 2 drug injections in order to avoid alterations in drug potency due to cumulation or tolerance.
The significance of differences between pre-drug control recordings and recordings after drug injection was calculated by the Wilcoxon signed rank test for paired replicates (SigmaStat for Windows, version 1.0).

PTZ induced seizures = details: literature / earlier application; cited from earlier work

## O=C1NC(=O)C(c2ccccc2)(c2ccccc2)N1 [Phenytoin]
[1]
  effect on complete, late-stage or spontaneous kindled seizures, in words: effective block of spontaneous seizures
  effect on development / early stages of kindled seizures, in words: not seizures elicited during the early stages of kindling

## CC#CCC(CCC)C(=O)O (stereo not drawn) [2-propyl-4-liexynoic acid]
[2]
  rotarod-test, day of exper.: 0%
Rectal body temperature
  BODY TEMP. (° C.) day of exper. 13′ post appl.: 38.31 °C
[3]; mean (X) of 8 kindled rats, control mean 48.50
  afterdisch.thresh. (ADT; μA): 126.25 μA
[3]; mean of 8 rats, control mean 5.00
  seizure severity (SS; score): 3.63 score
[3]; mean of 8 rats, control mean 83.00
  seizure duration1 (SD1; sec): 46.50 s
[3]; mean of 8 rats, control mean 86.00
  afterdisch.dur.1 (ADD1;sec): 62.75 s
[3]; mean of 8 rats, control mean 86.88
  afterdisch.dur.2 (ADD2; sec): 62.75 s
[3]; mean of 8 rats, control mean 258.75
  seizure duration2 (SD2; sec): 105.63 s

## CN1C(=O)CN=C(c2ccccc2)c2cc(Cl)ccc21 [Diazepam]
[1]
  effect on complete, late-stage or spontaneous kindled seizures, in words: not effective during the late stages
  effect on development / early stages of kindled seizures, in words: effective in inhibiting the earlier stages of seizure development

## NC(=O)N1c2ccccc2C=Cc2ccccc21 [carbamazepine]
[1]
  effect on complete, late-stage or spontaneous kindled seizures, in words: suppresses complete amygdala-kindled seizures
  effect on development / early stages of kindled seizures, in words: ineffective in preventing their development
PTZ induced seizures
  antiepileptic effect in PTZ test, in words: less effective
